# From patent US20240025922A1, “TETRAHYDROPYRIDO[3,4-d]PYRIMIDINES AS HPK1 INHIBITORS” (Merck Patent GmbH, priority 2022, published 2024)
# pIC50: −log10 of the molar value. Where two headings read alike, the source gives them in different places.
# What was measured:
# [1] = target: HPK1 (SLP76 phosphorylation at Ser376 in Jurkat and EL-4 cells) (Homo sapiens, UniProt Q92918); assay type: cell-based
# Description: Cellular Assay—Phospho-SLP-76 (Ser376).
# Inhibition of HPK1 enzymatic activity in cells was determined by detection of SLP76 phosphorylation at Ser376 residue in lysate from Jurkat (human) and EL-4 (mouse) cells. Jurkat and EL-4 cells express both HPK1 and SLP76 naturally. All cells were cultured in RPMI 1640 media containing 10% heat inactivated fetal bovine serum (FBS) and 1×Penicillin-Streptomycin. In either Jurkat or El-4 assay, cells were pre-incubated with test compounds prior to T cell stimulation by respective αCD3/αCD28 Dynabeads™. For detection, plates were read on the Envision and percent inhibition and IC50 were determined by Smart fit in Genedata Analyzer.
# For Jurkat cells: 35 μL cell suspension were dispensed at a density of 30,000 cells/well in 384-well plates containing HBSS (Gibco, 14025076)+0.1% BSA). 10-point logarithmic serial dilution of test compounds in DMSO were prepared by a Hamilton automated liquid handling robot and 35 nL was transferred into each well by an Echo liquid handler. After 60 min. pre-incubation, the cells were stimulated by adding 5 μL human T activator αCD3/αCD28 Dynabeads™ (Gibco, 11132D) at 1.2×107 beads/mL for 15 minutes at 37° C. Detection of Ser376 phosphorylation status was accomplished by first adding 10 μL of 5×AlphaLISA lysis buffer (Perkin Elmer, ALSU-PSLP-A500) to each well of the cell plate using a Multidrop Combi (5840300), followed by 20 minutes shaking. 10 μL cell lysate from each treatment were then transferred to a white 384-well plate (Corning 3572) and incubated with AlphaLISA acceptor beads for one hour (AlphaLISA SureFire Ultra p-SLP76(Ser376), Perkin Elmer, ALSU-PSLP-A500), and donor beads for additional 2 hours at room temperature in the dark.
# For EL-4.IL2 assay, 50 μL cell suspension at 2×10^6 cells/mL in HBSS were first dispensed into 384-well plates and then 50 nL serial dilutions of test compounds were spotted to each well by an Echo liquid handler. After 60 min. incubation at 37° C., cells were stimulated by adding 5 μL mouse T cell activator αCD3/αCD28 Dynabeads™ (ThermFisher Scientific, 11452D) for 30 minutes at 37° C. After a brief spin and subsequent supernatant discarded, 12.5 μL of Cisbio lysis buffer were added to each well and plates were shaken for 30 min at 450 RPM. For detection, 4 μL prepared HTRF antibody mixture (Cisbio, 63ADK000U) in detection buffer were mixed with 16 μl of cell lysate and plates were incubated at room temperature for 19 hours prior to EnVision reading.
# [2] = target: full-length human HPK1 (MAP4K1) (Homo sapiens (Human), UniProt Q92918); assay: HPK1 Kinase Assay (Biochemical Assay), ADP-Glo; conditions: GST-HPK1 3.2 nM, 10 μM ATP, MBP substrate, read-out: HPK1 enzymatic IC50
# Method in brief: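 ADP-Glo luminescence after a 120-min kinase reaction gave percent inhibition and IC50. The enzyme was Sf21-expressed N-terminal GST full-length human HPK1 at 3.2 nM in HEPES pH 7.5 buffer with MgCl2, DTT, Brij-35 and BSA.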
# [3] = αCD3/αCD28 Dynabeads stimulated cells, pSLP76 (Ser376) detection; read-out: HPK1 pSLP76 IC50
# [4] = read-out: HPK1 pSLP76 IC50; αCD3/αCD28 Dynabeads stimulated cells, pSLP76 (Ser376) detection
# Sequence of HPK1 (SLP76 phosphorylation at Ser376 in Jurkat and EL-4 cells) (Q92918 whole entry, looked up): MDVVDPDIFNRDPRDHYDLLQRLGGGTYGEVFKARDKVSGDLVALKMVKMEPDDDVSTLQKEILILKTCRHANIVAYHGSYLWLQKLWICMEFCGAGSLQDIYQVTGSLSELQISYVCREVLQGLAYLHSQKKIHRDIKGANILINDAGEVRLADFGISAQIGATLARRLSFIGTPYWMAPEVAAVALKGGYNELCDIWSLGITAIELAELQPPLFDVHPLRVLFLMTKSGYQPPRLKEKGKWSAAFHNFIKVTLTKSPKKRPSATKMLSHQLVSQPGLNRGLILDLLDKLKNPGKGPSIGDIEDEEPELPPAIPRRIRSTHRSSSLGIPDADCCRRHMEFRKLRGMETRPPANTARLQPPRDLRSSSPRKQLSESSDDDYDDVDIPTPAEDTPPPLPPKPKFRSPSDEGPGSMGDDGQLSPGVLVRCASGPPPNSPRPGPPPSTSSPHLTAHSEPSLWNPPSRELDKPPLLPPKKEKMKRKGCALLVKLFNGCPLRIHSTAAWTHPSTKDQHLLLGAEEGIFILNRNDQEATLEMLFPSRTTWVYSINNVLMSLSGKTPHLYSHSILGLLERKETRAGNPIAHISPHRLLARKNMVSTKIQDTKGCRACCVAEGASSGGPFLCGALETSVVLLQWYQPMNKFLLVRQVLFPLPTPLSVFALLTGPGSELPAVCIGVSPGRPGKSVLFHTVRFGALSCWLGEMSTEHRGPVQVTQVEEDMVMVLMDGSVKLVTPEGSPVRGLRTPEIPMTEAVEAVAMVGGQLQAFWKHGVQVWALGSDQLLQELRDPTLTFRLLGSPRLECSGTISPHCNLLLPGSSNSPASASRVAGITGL
# Sequence of full-length human HPK1 (MAP4K1) (Q92918 whole entry): as the sequence (Q92918 whole entry, looked up) above
SMILES,"pIC50 [1, 3]",pIC50 [2],"pIC50 [1, 4]"
"Cc1cc(Nc2ncc3c(n2)CN(c2cnc4c(c2C)NCCO4)CC3)cnc1NCCN1CCOCC1 [Example 36, 3-methyl-N5-(7-{8-methyl-1H,2H,3H-pyrido[2,3-b][1,4]oxazin-7-yl}-5H,6H,7H,8H-pyrido[3,4-d]pyrimidin-2-yl)-N2-[2-(morpholin-4-yl)ethyl]pyridine-2,5-diamine]",6.00 to 6.30,> 7.00,–
"CN1CCc2cc(Nc3cc4c(cn3)CCN(c3cnc5c(c3Cl)NCCO5)C4)nn2CC1=O [Example 37, 2-[(6-{8-chloro-1H,2H,3H-pyrido[2,3-b][1,4]oxazin-7-yl}-5,6,7,8-tetrahydro-2,6-naphthyridin-3-yl)amino]-6-methyl-4H,5H,6H,7H,8H-pyrazolo[1,5-d][1,4]diazepin-7-one]",6.00 to 6.30,> 7.00,–
"Cc1cc(Nc2ncc3c(n2)CN(c2cnc4c(c2C)NCCO4)CC3)ccc1C(=O)N1CC(N(C)C)C1 [Example 38, N,N-dimethyl-1-{2-methyl-4-[(7-{8-methyl-1H,2H,3H-pyrido[2,3-b][1,4]oxazin-7-yl}-5H,6H,7H,8H-pyrido[3,4-d]pyrimidin-2yl)amino]benzoyl}azetidin-3-amin]",< 6.00,> 7.00,–
"Cc1cc(Nc2ncc3c(n2)CN(c2cnc4c(c2C)NCCO4)CC3)ccc1C(=O)NCCN1CCOCC1 [Example 39, 2-methyl-4-[(7-{8-methyl-1H,2H,3H-pyrido[2,3-b]oxazin-7-yl}-5H,6H,7H,8H-pyrido[3,4-d]pyrimidin-2-yl)amino]-N-[2-(morpholin-4-yl)ethyl] benzamide]",> 6.30,> 7.00,–
"Cc1c(N2CCc3cnc(Nc4ccc(CS(=O)(=O)C5CC5)nc4)nc3C2)cnc2c1NCCO2 [Example 40, 6-[(cyclopropanesulfonyl)methyl]-N-(7-{8-methyl-1H,2H,3H-pyrido[2,3-b][1,4]oxazin-7-yl}-5H,6H,7H,8H-pyrido[3,4-d]pyrimidin-2-yl) pyridin-3-amine]",> 6.30,> 7.00,–
"Cc1c(N2CCc3cnc(Nc4ccc(CS(=O)(=O)CC5(C)COC5)cc4)nc3C2)cnc2c1NCCO2 [Example 41, 7-{8-methyl-1H,2H,3H-pyrido[2,3-b][1,4]oxazin-7-yl}-N-(4-{[(3-methyloxetan-3-yl)methanesulfonyl]methyl}phenyl)-5H,6H,7H,8H-pyrido[3,4-d]pyrimidin-2-amine]",> 6.30,> 7.00,–
"Cc1c(N2CCc3cnc(Nc4ccc(C(=O)N5CC[C@@H](N(C)C)C5)cc4)nc3C2)cnc2c1NCCO2 [Example 42, (3R)—N,N-dimethyl-1-{4-[(7-{8-methyl-1H,2H,3H-pyrido[2,3-b][1,4]oxazin-7-yl} 5H,6H,7H,8H-pyrido[3,4-d]pyrimidin-2-yl)amino]benzoyl}pyrrolidin-3-amine]",> 6.30,> 7.00,–
"COCCNC(=O)c1ccc(Nc2ncc3c(n2)CN(c2cnc4c(c2C)NCCO4)CC3)cc1 [Example 44, N-(2-methoxyethyl)-4-[(7-{8-methyl-1H,2H,3H-pyrido[2,3-b][1,4]oxazin-7-yl}-5H,6H,7H,8H-pyrido[3,4-d]pyrimidin-2-yl)amino]benzamide]",> 6.30,> 7.00,–
"Cc1cc(Nc2ncc3c(n2)CN(c2cnc4c(c2C)NCCO4)CC3)ccc1NC(=O)CN(C)C [Example 45, 2-(dimethylamino)-N-{2-methyl-4-[(7-{8-methyl-1H,2H,3H-pyrido[2,3-b][1,4]oxazin-7-yl}-5H,6H,7H,8H-pyrido[3,4-d]pyrimidin-2-yl)amino]phenyl}acetamide]",> 6.30,> 7.00,–
"CNCc1cccc(Nc2ncc3c(n2)CN(c2cnc4c(c2C)NCCO4)CC3)c1 [Example 46, 7-{8-methyl-1H,2H,3H-pyrido[2,3-b][1,4]oxazin-7-yl}-N-{3-[(methylamino)methyl]phenyl}-5H,6H,7H,8H-pyrido[3,4-d]pyrimidin-2-amine]",6.00 to 6.30,> 7.00,–
"Cc1c(N2CCc3cnc(Nc4ccc5c(c4)CN(C)C5)cc3C2)cnc2c1NCCO2 [Example 47, 6-{8-methyl-1H,2H,3H-pyrido[2,3-b][1,4]oxazin-7-yl}-N-(2-methyl-2,3-dihydro-1H-isoindol-5-yl)-5,6,7,8-tetrahydro-2,6-naphthyridin-3-amine]",6.00 to 6.30,> 7.00,–
"Cc1cc(Nc2ncc3c(n2)CN(c2cnc4c(c2C)NCCO4)CC3)ccc1NC(=O)CN1CCOCC1 [Example 48, N-{2-methyl-4-[(7-{8-methyl-1H,2H,3H-pyrido[2,3-b][1,4]oxazin-7-yl}-5H,6H,7H,8H-pyrido[3,4-d]pyrimidin-2-yl)amino]phenyl}-2-(morpholin-4-yl)acetamide]",> 6.30,> 7.00,–
"Cc1c(N2CCc3cnc(Nc4ccnc(CS(C)(=O)=O)c4)nc3C2)cnc2c1NCCO2 [Example 49, 7-(8-methyl-2,3-dihydro-1H-pyrido[2,3-b][1,4]oxazin-7-yl)-N-(2-((methylsulfonyl)methyl)pyridin-4-yl)-5,6,7,8-tetrahydropyrido[3,4-d]pyrimidin-2-amine]",6.00 to 6.30,> 7.00,–
"Cc1c(N2CCc3cnc(Nc4cccc(CS(C)(=O)=O)c4)nc3C2)cnc2c1NCCO2 [Example 50, 7-(8-methyl-2,3-dihydro-1H-pyrido[2,3-b][1,4]oxazin-7-yl)-N-(3-((methylsulfonyl)methyl)phenyl)-5,6,7,8-tetrahydropyrido[3,4-d]pyrimidin-2-amine]",> 6.30,> 7.00,–
"Cc1c(N2CCc3cnc(Nc4ccc(CS(C)(=O)=O)nc4)cc3C2)cnc2c1NCCO2 [Example 51, 6-(8-methyl-2,3-dihydro-1H-pyrido[2,3-b][1,4]oxazin-7-yl)-N-(6-((methylsulfonyl)methyl)pyridin-3-yl)-5,6,7,8-tetrahydro-2,6-naphthyridin-3-amine]",6.00 to 6.30,> 7.00,–
"Cc1c(N2CCc3cnc(Nc4ccc(C5(O)CCN(C)CC5)cc4)cc3C2)cnc2c1NCCO2 [Example 52, 1-methyl-4-(4-((6-(8-methyl-2,3-dihydro-1H-pyrido[2,3-b][1,4]oxazin-7-yl)-5,6,7,8-tetrahydro-2,6-naphthyridin-3-yl)amino)phenyl)piperidin-4-ol]",6.00 to 6.30,> 7.00,–
"CNCc1ccc(Nc2ncc3c(n2)CN(c2cnc4c(c2C)NCCO4)CC3)cc1 [Example 53, 7-(8-methyl-2,3-dihydro-1H-pyrido[2,3-b][1,4]oxazin-7-yl)-N-(4-((methylamino)methyl)phenyl)-5,6,7,8-tetrahydropyrido[3,4-d]pyrimidin-2-amine]",6.00 to 6.30,> 7.00,–
"Cc1c(N2CCc3cnc(Nc4ccc(N5CCN(C)CC5)cc4)nc3C2)cnc2c1NCCO2 [Example 55, 7-(8-methyl-2,3-dihydro-1H-pyrido[2,3-b][1,4]oxazin-7-yl)-N-(4-(4-methylpiperazin-1-yl)phenyl)-5,6,7,8-tetrahydropyrido[3,4-d]pyrimidin-2-amine]",–,> 7.00,6.00 to 6.30
"Cc1c(N2CCc3cnc(Nc4ccc(NC(=O)CN(C)C)nc4)nc3C2)cnc2c1NCCO2 [Example 56, 2-(dimethylamino)-N-(5-((7-(8-methyl-2,3-dihydro-1H-pyrido[2,3-b][1,4]oxazin-7-yl)-5,6,7,8-tetrahydropyrido[3,4-d]pyrimidin-2-yl)amino)pyridin-2-yl)acetamide]",–,> 7.00,> 6.30
